{"source": "patent US20090269770A1", "about": "“METHODS FOR EVALUATION PROGNOSIS AND FOLLOW-UP OF DRUG TREATMENT OF PSYCHIATRIC DISEASES OR DISORDERS” (priority 2008, published 2009)", "key": {"[1]": {"tested_on": "PMC from schizophrenic patients", "assay": "GPCR cDNA array (GEArray Q series) of PMC gene expression, fluvoxamine augmentation", "assay_type": "in vivo, human", "design": "key to Gene expression change CCR5 (X91492), divided by week 0 / Gene expression change CCR7 (L31581), divided by week 0 / Gene expression change CCRL1 (AF110640), divided by week 0 / Gene expression change CRL1 (U79527), divided by week 0 / Gene expression change IL8Rα (L19591), divided by week 0 / Gene expression change RGS7 (BC022009), divided by week 0 / Gene expression change 5-HT2A (X57830), divided by week 0 / Gene expression change 5-HT7 (L21195), divided by week 0 / Gene expression change CCR1 (D10925), divided by week 0: D—down regulation (<0.7); U—up regulation (>1.3); nc—No change; nd—Not detected", "conditions": "for Gene expression change 5-HT2A (X57830), divided by week 0 / Gene expression change 5-HT7 (L21195), divided by week 0 / Gene expression change CCR1 (D10925), divided by week 0 / Gene expression change CCR5 (X91492), divided by week 0 / Gene expression change CCR7 (L31581), divided by week 0 / Gene expression change CCRL1 (AF110640), divided by week 0 / Gene expression change CRL1 (U79527), divided by week 0 / Gene expression change IL8Rα (L19591), divided by week 0 / Gene expression change RGS7 (BC022009), divided by week 0: PMC, one cell per patient I-VI", "protocol": "(§1) Patients suffering from chronic schizophrenia (DSM IV criteria) with at least 2 years of illness (range 2-17 years) and persistent negative symptoms were chosen from an Israeli mental health center, as shown in Table 1. To qualify for inclusion in the study, these patients were required to be on constant antipsychotic medication for at least 6 months prior to the study and on an unchanged dose for at least 4 weeks before entry.\n(§2) Fluvoxamine (100 mg/day) was added in an open study format to the antipsychotic treatment, which remained steady. Clinical state was assessed by psychiatrists using validated rating scales for negative (SANS) and positive (SAPS) symptoms (Silver et al., 2003) prior to fluvoxamine treatment and then weekly until the end of the trial period. Total SANS scores and summary scores for […] blunting, alogia, anhedonia and […] factors were the outcome measures. Extrapyramidal symptoms were assessed with the Simpson-Angus Scale (SAS) for extrapyramidal side effects (Simpson and Angus, 1970). Blood samples were taken at baseline (day 0), before addition of fluvoxamine, after 3 weeks of combined treatment, a time when the initial clinical effect is expected to be seen (Silver et al., 2003), and after 6 weeks of the combined treatment.\nBlood samples (40 ml) from patients were collected in EDTA-coated tubes in order to prevent coagulation, and transported in ice to the laboratory for further processing. Each 15 ml of blood was completed to 40 ml with phosphate buffered saline (PBS) and gently mixed. PMC were isolated according to Ficoll protocol (Sigma, USA). In short, after addition of Ficoll reagent, the tubes were centrifuged (400 g, 30 min), and the interphase was transferred to a new tube, mixed with 100 ml PBS and centrifuged (400 g, 10 min). The supernatant was discarded and the pellet containing the PMC was washed 3 times with PBS (400 g, 10 min). TriReagent (Sigma, USA) was added to the pellet and left on ice for 15 min.\n[…] chloroform was added to 1 ml of sample in TriReagent and the suspension was centrifuged (12,000 g, 20 min, 4° C.). After precipitation with isopropanol, the RNA pellet was washed twice with 70% ethanol (7,500 g, 10 min), followed by one wash with 96% ethanol (12,000 g, 10 min) and resuspended in diethylpyrocarbonate (DEPC)-treated water. RNA sample concentrations were determined by UV spectrophotometry at 260 nm (average OD260/2801.9-2). RNA purity was determined by the 260/230 and 260/280 ratios. RNA integrity was confirmed using gel (1.2% agarose) electrophoresis by direct visualization of 18S and 28S rRNA bands and densitometric analysis.\nIn the next step, gene expression profiles were examined with GEArray™ cDNA membranes, consisting of genes related to G protein-coupled receptor (GPCR) pathways (Q series human G protein-coupled receptor gene array II, SuperArray, Bethesda, Md., USA). Each membrane consists of 100 human cDNAs fragments associated with GPCR family, including receptors for dopamine (DA), serotonin (5-HT), acetylcholine and epinephrine; receptors for chemokines; GPCR kinases; Mitogen activated protein kinases; and regulators of G-protein signaling (RGS). Hybridization array analysis was performed according to the manufacturer's (SuperArray, Bethesda, Md.) protocol. Total RNA from each patient was reverse transcribed with biotinylated dUTP (Roche Diagnostics, Mannheim, Germany) and a gene specific primer mix (SuperArray, Bethesda, Md.). The probes were hybridized to the membrane and the array image was recorded using X-ray film. Quantitation of the results and analysis was accomplished using the manufacturer Software Package (SuperArray, Bethesda, Md.). The row values from 4 spotted replicates of a gene were averaged, normalized to the median of all intensity values on array and compared to control values, thereby assessing the relative expression level of a given mRNA. […]"}, "[2]": {"tested_on": "schizophrenic patients", "assay": "Clinical rating scales for negative (SANS) and positive (SAPS) symptoms", "assay_type": "in vivo, human", "conditions": "for SANS total / SAPS total / Affective blunting score / Alogia score / Anhedonia score / Avolition score: one line per patient I-VI", "protocol": "as §1, §2\nThe biochemical data were analyzed by one way analysis of variance (ANOVA) followed by Dunnett's test. For each gene, differences between expression after 3 or 6 weeks of treatment ad baseline, were considered significant if they reached a level of significance of p<0.05. Clinical response was assessed with repeated measure ANOVA."}, "[3]": {"conditions": "after 3 weeks or more of the combined treatment"}, "[4]": {"conditions": "in at least 4 out of the 6 subjects after 3 weeks or more of the combined treatment"}}, "note": "Values joined by “and” are separate entries in the source; they are usually repeats but may differ in a detail not shown here. Equal entries are not always repeated. “Also recorded” adds a separate entry of the source.", "data": [{"compound": "COCCCC/C(=N\\OCCN)c1ccc(C(F)(F)F)cc1", "note": "[fluvoxamine]", "values": [{"measurement": "expression level of CCR5", "setting": "[1]; [3]", "value": "increase"}, {"measurement": "transcript encoding 5-HR7", "setting": "[1]; [3]", "value": "reduced expression level"}, {"measurement": "transcript encoding 5-HT2A", "setting": "[1]; [3]", "value": "reduced expression level"}, {"measurement": "transcript encoding RGS7", "setting": "[1]; [3]", "value": "reduced expression level"}, {"measurement": "expression level of CCR1", "setting": "[1]; [4]", "value": "decrease"}, {"measurement": "expression level of CCRL1", "setting": "[1]; [4]", "value": "decrease"}, {"measurement": "expression level of CMKLR1", "setting": "[1]; [4]", "value": "decrease"}, {"measurement": "expression level of IL8Rα", "setting": "[1]; [4]", "value": "decrease"}, {"measurement": "Gene expression change 5-HT2A (X57830), divided by week 0", "setting": "[1]; week 3", "value": "D (D—down regulation (<0.7)) (4×) and nc"}, {"measurement": "Gene expression change 5-HT7 (L21195), divided by week 0", "setting": "[1]; week 3", "value": "D (D—down regulation (<0.7)) (4×) and nc"}, {"measurement": "Gene expression change CCR1 (D10925), divided by week 0", "setting": "[1]; week 3", "value": "D (D—down regulation (<0.7)) (3×) and nc"}, {"measurement": "Gene expression change CCR5 (X91492), divided by week 0", "setting": "[1]; week 3", "value": "U (U—up regulation (>1.3))"}, {"measurement": "Gene expression change CCR7 (L31581), divided by week 0", "setting": "[1]; week 3", "value": "nc (2×) and D (D—down regulation (<0.7)) (3×) and U (U—up regulation (>1.3))"}, {"measurement": "Gene expression change CCRL1 (AF110640), divided by week 0", "setting": "[1]; week 3", "value": "nc (3×) and D (D—down regulation (<0.7)) (3×)"}, {"measurement": "Gene expression change CRL1 (U79527), divided by week 0", "setting": "[1]; week 3", "value": "D (D—down regulation (<0.7)) (4×) and nc (2×)"}, {"measurement": "Gene expression change IL8Rα (L19591), divided by week 0", "setting": "[1]; week 3", "value": "D (D—down regulation (<0.7)) (3×) and nc and U (U—up regulation (>1.3)) (2×)"}, {"measurement": "Gene expression change RGS7 (BC022009), divided by week 0", "setting": "[1]; week 3", "value": "D (D—down regulation (<0.7)) (2×) and nc (3×) and U (U—up regulation (>1.3))"}, {"measurement": "Gene expression change 5-HT2A (X57830), divided by week 0", "setting": "[1]; week 6", "value": "nc and D (D—down regulation (<0.7)) (4×)"}, {"measurement": "Gene expression change 5-HT7 (L21195), divided by week 0", "setting": "[1]; week 6", "value": "D (D—down regulation (<0.7)) (4×) and nc"}, {"measurement": "Gene expression change CCR1 (D10925), divided by week 0", "setting": "[1]; week 6", "value": "D (D—down regulation (<0.7)); also recorded: U (U—up regulation (>1.3))"}, {"measurement": "Gene expression change CCR5 (X91492), divided by week 0", "setting": "[1]; week 6", "value": "U (U—up regulation (>1.3)) and nc (2×) and D (D—down regulation (<0.7))"}, {"measurement": "Gene expression change CCR7 (L31581), divided by week 0", "setting": "[1]; week 6", "value": "U (U—up regulation (>1.3)) (3×) and nc (2×) and D (D—down regulation (<0.7))"}, {"measurement": "Gene expression change CCRL1 (AF110640), divided by week 0", "setting": "[1]; week 6", "value": "U (U—up regulation (>1.3)) (2×) and nc (2×) and D (D—down regulation (<0.7)) (2×)"}, {"measurement": "Gene expression change CRL1 (U79527), divided by week 0", "setting": "[1]; week 6", "value": "D (D—down regulation (<0.7)) (4×) and nc and U (U—up regulation (>1.3))"}, {"measurement": "Gene expression change IL8Rα (L19591), divided by week 0", "setting": "[1]; week 6", "value": "D (D—down regulation (<0.7)) (4×) and U (U—up regulation (>1.3)) and nc"}, {"measurement": "Gene expression change RGS7 (BC022009), divided by week 0", "setting": "[1]; week 6", "value": "D (D—down regulation (<0.7)) (4×) and nc (2×)"}, {"measurement": "expression level of CCR7", "setting": "[1]; week 6 compared with week 3", "value": "increased"}, {"measurement": "expression level of CCRL1", "setting": "[1]; week 6 compared with week 3", "value": "increased"}, {"measurement": "SANS total", "setting": "[2]; 3 W of augmentation treatment", "value": "71 and 49 and 69 and 104 and 91 and 97"}, {"measurement": "SAPS total", "setting": "[2]; 3 W of augmentation treatment", "value": "9 and 7 (2×) and 12 (2×) and 11"}, {"measurement": "Affective blunting score", "setting": "[2]; 3 W", "value": "23 and 26 and 19 and 9 and 18 and 27"}, {"measurement": "Alogia score", "setting": "[2]; 3 W", "value": "24 and 21 and 13"}, {"measurement": "Anhedonia score", "setting": "[2]; 3 W", "value": "14 (2×) and 16 and 11 (2×) and 17"}, {"measurement": "Avolition score", "setting": "[2]; 3 W", "value": "16 and 18 and 11 and 8 (2×) and 19"}, {"measurement": "SANS total", "setting": "[2]; 6 W of augmentation treatment", "value": "63 and 46 and 60 and 103 and 86 and 98"}, {"measurement": "SAPS total", "setting": "[2]; 6 W of augmentation treatment", "value": "9 and 7 and 6 and 12 (2×) and 10"}, {"measurement": "Affective blunting score", "setting": "[2]; 6 W", "value": "30 and 22 and 14"}, {"measurement": "Alogia score", "setting": "[2]; 6 W", "value": "21 and 26 (2×) and 16 and 9 and 15"}, {"measurement": "Anhedonia score", "setting": "[2]; 6 W", "value": "14 (2×) and 8 and 9 and 12 and 17"}, {"measurement": "Avolition score", "setting": "[2]; 6 W", "value": "16 and 18 and 11 and 8 (2×) and 19"}, {"measurement": "SAPS score change", "setting": "[2]; following augmentation-treatment", "value": "no significant change"}, {"measurement": "mean SANS total score change", "setting": "[2]; following augmentation-treatment, p<0.001", "value": "significant changes"}, {"measurement": "affective blunting change", "setting": "[2]; following augmentation-treatment, p<0.01", "value": "significant changes"}, {"measurement": "anhedonia change", "setting": "[2]; following augmentation-treatment, p=0.30", "value": "trend"}, {"measurement": "avolition change", "setting": "[2]; following augmentation-treatment, p=0.75", "value": "trend"}]}]}
